Patent US10167257B2, “Indole derivatives for use in medicine” (IOmet Pharma Ltd., priority 2014, dated 2019)

Columns and labels:
TDO (A172 cells) = biological target: T1, TDO (A172 cells) (Homo sapiens, UniProt P48775); assay: TDO cell-based assay (A172), kynurenine production; conditions: A172 human glioblastoma cells, 500 μM L-Trp, 48 h, kynurenine by absorbance at 490 nm
T1 construct: This assay utilised cancer cells which expressed either TDO or IDO; host or cells: A172 human glioblastoma cells
Procedure, shortened: (§1)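 Kynurenine output was read at 490 nm after 5 min with 1% Ehrlich's reagent, using supernatants from 48 h, 37 °C cultures containing 500 μM L-Trp and test compound. TDO activity came from A172 cells. IDO activity came from SKOV-3 cells, whose expression was induced by adding 500 ng/ml IFNγ.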

IDO (SKOV-3 cells) = biological target: T2, IDO (SKOV-3 cells) (Homo sapiens, UniProt P14902); assay: IDO cell-based assay (SKOV-3, IFNγ-induced), kynurenine production; conditions: SKOV-3 ovary adenocarcinoma cells, IFNγ 500 ng/ml, 500 μM L-Trp, 48 h, kynurenine by absorbance at 490 nm
T2 construct: This assay utilised cancer cells which expressed either TDO or IDO; host or cells: SKOV-3 ovary adenocarcinoma cells, IFNγ-induced
Procedure, shortened: as §1

T1 sequence (P48775 whole entry): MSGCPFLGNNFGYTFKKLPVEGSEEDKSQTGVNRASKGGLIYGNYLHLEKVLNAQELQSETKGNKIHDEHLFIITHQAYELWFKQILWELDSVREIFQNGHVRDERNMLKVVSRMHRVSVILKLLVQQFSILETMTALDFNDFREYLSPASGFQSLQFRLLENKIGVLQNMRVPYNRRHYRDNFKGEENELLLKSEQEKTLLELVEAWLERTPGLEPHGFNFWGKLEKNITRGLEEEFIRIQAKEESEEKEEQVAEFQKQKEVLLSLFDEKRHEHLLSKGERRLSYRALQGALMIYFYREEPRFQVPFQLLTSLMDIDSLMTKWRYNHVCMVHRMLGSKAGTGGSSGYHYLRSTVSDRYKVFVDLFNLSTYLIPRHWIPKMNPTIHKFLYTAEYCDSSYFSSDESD
T2 sequence (P14902 whole entry): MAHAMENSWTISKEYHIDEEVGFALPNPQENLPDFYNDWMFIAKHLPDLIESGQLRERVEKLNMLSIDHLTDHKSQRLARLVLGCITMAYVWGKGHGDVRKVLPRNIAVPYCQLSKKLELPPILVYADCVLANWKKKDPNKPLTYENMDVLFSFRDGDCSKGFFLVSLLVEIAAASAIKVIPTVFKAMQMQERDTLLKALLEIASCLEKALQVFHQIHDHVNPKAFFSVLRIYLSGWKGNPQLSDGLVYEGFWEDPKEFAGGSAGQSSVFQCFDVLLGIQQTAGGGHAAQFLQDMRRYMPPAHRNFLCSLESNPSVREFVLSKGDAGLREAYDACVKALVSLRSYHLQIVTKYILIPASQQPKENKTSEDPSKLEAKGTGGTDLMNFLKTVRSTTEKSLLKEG

SMILES | TDO cellular assay (A172) pIC50 (TDO (A172 cells)) | IDO cellular assay (SKOV3) pIC50 (IDO (SKOV-3 cells))
CC(NC(=O)c1cc2cc(Cl)ccc2[nH]1)c1ncc[nH]1 (stereo not drawn) [Compound 96] | − (− = pIC50 <4.50) | + (+ = pIC50 4.50-<5.00)
Cn1cc(C2(NC(=O)c3cc4cc(Br)ccc4[nH]3)COC2)cn1 [Compound 238] | − (− = pIC50 <4.50) | +++ (+++ = pIC50 ≥5.50)
Cc1cc(C)c2cc(C(=O)NCc3ccc(C)n3C)[nH]c2c1 [Compound 20] | − (− = pIC50 <4.50) | + (+ = pIC50 4.50-<5.00)
COc1ccc2cc(C(=O)NC3(c4cnn(C)c4)CC3)[nH]c2c1 [Compound 167] | − (− = pIC50 <4.50) | ++ (++ = pIC50 5.00-<5.50)
CC(NC(=O)c1cc2cc(Cl)ccc2[nH]1)c1nc(-c2ccccc2)no1 (stereo not drawn) [Compound 121] | − (− = pIC50 <4.50) | +++ (+++ = pIC50 ≥5.50)
CC(NC(=O)c1cc2ccc(C(N)=O)cc2[nH]1)c1ccccc1 (stereo not drawn) [Compound 89] | +++ (+++ = pIC50 ≥5.50) | − (− = pIC50 <4.50)
CC(NC(=O)c1cc2cc(C(F)(F)F)ccc2[nH]1)c1cnn(C)c1 (stereo not drawn) [Compound 157] | − (− = pIC50 <4.50) | ++ (++ = pIC50 5.00-<5.50)
CCOc1ccc2[nH]c(C(=O)N[C@H](C)c3ccccc3)cc2c1 [Compound 270] | − (− = pIC50 <4.50) | +++ (+++ = pIC50 ≥5.50)
C[C@@H](NC(=O)c1cc2c(F)cccc2[nH]1)c1ccccc1 [Compound 62] | +++ (+++ = pIC50 ≥5.50) | +++ (+++ = pIC50 ≥5.50)
C[C@@H](NC(=O)c1cc2cc(Br)ccc2[nH]1)c1ccccc1 [Compound 252] | − (− = pIC50 <4.50) | +++ (+++ = pIC50 ≥5.50)
C[C@@H](NC(=O)c1cc2cc(F)ccc2[nH]1)c1ccccc1 [Compound 43] | ++ (++ = pIC50 5.00-<5.50) | +++ (+++ = pIC50 ≥5.50)
O=C(NC1(c2ccccc2)CC1)c1cc2ccc(O)cc2[nH]1 [Compound 172] | − (− = pIC50 <4.50) | + (+ = pIC50 4.50-<5.00)
CC(=O)N1CC(C(C)NC(=O)c2cc3cc(Cl)ccc3[nH]2)C1 (stereo not drawn) [Compound 147] | − (− = pIC50 <4.50) | +++ (+++ = pIC50 ≥5.50)
C[C@@H](NC(=O)c1cc2ccc(F)cc2[nH]1)c1ccccc1 [Compound 44] | + (+ = pIC50 4.50-<5.00) | +++ (+++ = pIC50 ≥5.50)
CC1(NC(=O)c2cc3cc(Cl)ccc3[nH]2)CC1 [Compound 139] | − (− = pIC50 <4.50) | + (+ = pIC50 4.50-<5.00)
COc1cccc(-c2cc(CNC(=O)c3cc4cc(Cl)ccc4[nH]3)on2)c1 [Compound 109] | − (− = pIC50 <4.50) | ++ (++ = pIC50 5.00-<5.50)
CC(NC(=O)c1cc2cc(Cl)cnc2[nH]1)c1cnn(C)c1 (stereo not drawn) [Compound 165] | − (− = pIC50 <4.50) | + (+ = pIC50 4.50-<5.00)
Cn1ccc(C2(NC(=O)c3cc4cc(Cl)ccc4[nH]3)CC2)n1 [Compound 224] | ++ (++ = pIC50 5.00-<5.50) | ++ (++ = pIC50 5.00-<5.50)
C[C@@H](NC(=O)c1cc2cccc(F)c2[nH]1)c1ccccc1 [Compound 61] | +++ (+++ = pIC50 ≥5.50) | +++ (+++ = pIC50 ≥5.50)
O=C(NC1(c2cocn2)CC1)c1cc2cc(Cl)ccc2[nH]1 [Compound 274] | − (− = pIC50 <4.50) | +++ (+++ = pIC50 ≥5.50)
C[C@H](NC(=O)c1cc2c(F)cccc2[nH]1)c1ccccc1 [Compound 56] | + (+ = pIC50 4.50-<5.00) | + (+ = pIC50 4.50-<5.00)
O=C(NC1(c2ccccn2)CC1)c1cc2cc(Cl)ccc2[nH]1 [Compound 155] | − (− = pIC50 <4.50) | +++ (+++ = pIC50 ≥5.50)
C[C@@H](NS(=O)(=O)c1cc2cc(F)ccc2[nH]1)c1ccccc1 [Compound 127] | − (− = pIC50 <4.50) | + (+ = pIC50 4.50-<5.00)
O=C(NCc1cccc(Cl)c1)c1cc2cc(Cl)ccc2[nH]1 [Compound 33] | − (− = pIC50 <4.50) | ++ (++ = pIC50 5.00-<5.50)
